In patent publication US20120128728A1 (NOVARTIS PHARMA AG, priority 2005, published 2012):

What was measured:
[1] = in vivo; set-up: species or system dogs; details: both sexes, dog
Text: On Study Days 1 and 14, blood samples for toxicokinetic analysis were obtained from designated animals in the vehicle and high-dose groups before exposure and 2, 4, 8, 12, and 24 hr after exposure, and daily during the 14-day recovery period. Main-study animals were euthanized and necropsied on day 15, recovery animals on day 29, during which the right anterior lobe of each animal was obtained for toxicokinetic analysis.

[2] = tested on: Aspergillus fumigatus
Protocol: This study had three groups, with 10 rabbits each. Group 1 received the immunosuppressive regimen of intravenous cytarabine and methyl prednisolone and a sham saline inoculation. Group 2 received the immunosuppressive regimen and 5×10^7 conidia of A. fumigatus. […] The immunosuppressive agents were administered by intravenous injection. Antibiotics to prevent bacterial infections were administered by intravenous injection or in the drinking water.
Evaluations performed in this study included mortality and morbidity, daily clinical observations, body weights, clinical pathology (hematology and clinical chemistry), gross necropsy, lung weight, enumeration of visible lung infarctions, fungal colony forming unit (CFU) measurements in BAL, blood, and lung tissue samples, and histopathological evaluation of lung tissue.
There were 3 study groups with 10 rabbits in each group in this experiment. Group 1 received the immunosuppressive regimen of intravenous cytarabine and methyl prednisolone and a sham saline inoculation. Group 2 received the immunosuppressive regimen and 5×10^7 conidia of A. fumigatus.
New Zealand White SPF rabbits that were dual catheterized with vascular access ports (VAPs) and weighing between 2.5 to 4.0 kg at study initiation were used. The rabbits were randomly assigned to treatment groups using a computerized body weight stratification procedure.
In this regard, powder from a blister pack was actuated from the inhaler into a chamber. The small animal ventilator pushed the dispersed powder into an endotracheal tube. The delivery efficiency to the animal was determined by measuring the gravimetric mass of the powder collected on a filter connected to the end of the endotracheal tube. The mass collected on the filter was normalized to the actual blister pack fill weight. The delivery efficiency was used to calculate the estimated dose (mg) for the in vivo experiments.

[3] = in vivo; set-up: species or system rabbits; details: rabbit
Protocol: This Example describes results obtained in the plasma and lung tissue only.
The lot number of the formulation was N020042. The test powder was hand-filled into blister packs and contact sealed at 340° F. for 1.0 second, with an approximate fill weight of approximately 1.5 mg per blister pack.
(§1) The test inhalation was administered in a single inhalation exposure.
The study included two groups each comprised of 48 rabbits. […] Four animals were sacrificed at each of the following time points after dosing: 0.16, 0.3, 1, 1.3, 2, 3, 4, 5, 14, 21, 28, and 45 days. Plasma and lung tissue were collected and analyzed for amphotericin B content using LC/MS-MS. Lower limits of quantitation (LLQ) of the assays were 5 ng/mL in plasma and 20 ng/g in lung tissue.

[4] = tested on: Aspergillus fumigatus, NIH strain 4215; experiment: Efficacy of inhaled amphotericin B for prophylaxis in rabbits (Example 13); assay type: in vivo, New Zealand White SPF rabbits; details: for survival rate: day 14
Protocol: The test powder was hand-filled into blister packs and contact sealed at 340° F. for 1.0 second, with an approximate fill weight of approximately 1.5 mg per blister pack.
as §1
Aspergillus fumigatus, NIH strain 4215, was obtained from American Type Culture Collection (ATCC). Inoculum of A. fumigatus was prepared on Sabouraud dextrose flasks. Conidia were harvested with a solution of 0.025% Tween 20 in 0.9% sodium chloride, transferred to a conical tube, washed, and counted. The concentration was adjusted with the same solution to achieve 5×10^7 conidia in 300 μL. Animals in challenged groups were inoculated with the same volume. Inoculation was performed on anesthetized rabbits. Rabbits were intubated using an endotracheal tube and the inoculum was then administered intratracheally with a tuberculin syringe attached to a catheter introduced through the endotracheal tube.
The study included 6 groups each comprised of 10 rabbits. These groups are described in Table 6, below. All groups were immunosuppressed and treated with antibiotics to prevent bacterial infections. The immunosuppression and antibiotic cover regimen is detailed in Table 7, below.

[5] = Dry powder toxicology study in rats with daily or weekly dosing (Example 15); assay type: in vivo; details: dosages up to 30.60 mg/kg/dose amphotericin B alone
Protocol: The information obtained was used to select dose levels and/or dose regimens for subsequent toxicity studies.
The following investigations were performed: clinical observations, body weight, hematology, clinical chemistry, organ weight, histopathology, toxicokinetics, and bioanalytical chemistry.

[6] = Toxicity of two dry powders in rats with daily or weekly dosing (Example 16); assay type: in vivo
Protocol: The following investigations were performed: clinical observations, body weight, respiratory measurements, hematology, clinical chemistry, histopathology, toxicokinetics, and bioanalytical chemistry.

[7] = Toxicity of two dry powders in beagle dogs, once weekly inhalation (Example 17); assay type: in vivo
Protocol: The animals were dosed using a close fitting face mask (fitted with a mouth tube) system for 30 min per day according to Table 15, above.

[8] = Fourteen-day inhalation toxicity/toxicokinetic study in rats; assay type: in vivo; details: both sexes, rat, lung tissue, inhaled, recovery period, read-out: lung tissue elimination half-life (t1/2) (converted)
Protocol: Recovery animals were retained for a 14-day postdose recovery period. On study days 1 and 14, blood samples for toxicokinetic analysis were obtained from designated animals in the vehicle only and high-dose (25 mg/kg) groups at predose, 2 hr postdose, and 4 hr postdose. Toxicokinetic blood samples were also obtained during the 14-day recovery period on recovery Days 7 and 14 for males, and on recovery Day 14 only for females due to their lower body weight.
All study animals were subjected to a detailed necropsy on completion of the 14-day treatment period (Day 15) or completion of the 14-day recovery period (Day 29). During necropsy, lung tissue samples for toxicokinetic analysis were obtained from each animal.

[9] = tested on: fungus; experiment: Minimum inhibitory concentration (MIC)
Protocol: The MIC may be expressed as a particular concentration value or as a range of concentrations. […] As used herein, unless otherwise specified, the MIC value shall be taken to be the particular value when a particular MIC value is determined and shall be taken to be a midrange value when a range of MIC values is determined. MIC determinations may be made according to processes known in the art.

[10] = rat, in vivo
Protocol: (§2) The animals were dosed using a snout only exposure technique for about 60 min on 5 occasions at weekly intervals. Recovery animals were retained for an approximate one month recovery period.
(§3) The following investigations were performed: clinical observations, body weight, food consumption, ophthalmology, hematology, clinical chemistry, urinalysis, histopathology, and toxicokinetics.

[11] = One month inhalation toxicity study in rats
Protocol: as §2, §3

[12] = Group 3: 1.5 mg/kg inhaled 1 day before 5×10^7 conidia
[13] = Group 3: 1.5 mg/kg inhaled at day −12
[14] = Group 4: 0.15 mg/kg inhaled at day −1
[15] = Group 5: 0.5 mg/kg inhaled at day −1
[16] = Group 6: 1.5 mg/kg inhaled at Day −1

C[C@@H]1[C@H](O)[C@@H](C)/C=C/C=C/C=C/C=C/C=C/C=C/C=C/[C@H](O[C@@H]2O[C@H](C)[C@@H](O)[C@H](N)[C@@H]2O)C[C@@H]2O[C@](O)(C[C@@H](O)C[C@@H](O)[C@H](O)CC[C@@H](O)C[C@@H](O)CC(=O)O[C@H]1C)C[C@H](O)[C@H]2C(=O)O [amphotericin B]
half-life [1]: 18.8 days
Kaplan-Meier survival compared with Group 2 (A. fumigatus only) ([2]; Group 3): significant (p<0.05) increase
animals observed wheezing, gasping, or having rales ([2]; Group 3): five
animals with more than 20 grossly visible lung infarctions ([2]; Group 3, gross necropsy): 20%
animals with visible lung infarction ([2]; Group 3, gross necropsy): 80%
animals with mycotic hyphae present in lung ([2]; Group 3, histopathology): 50%
average survival time [2, 12]: 13 days
median day of death or sacrifice [2, 12]: 14 days
animals having 1 or more tissues positive for fungus ([2]; Group 3, BAL, blood, lung tissue culture, 9 animals): 44%
effect against A. fumigatus induced mortality ([2]; conclusion): prophylactic effect
animals surviving beyond nine days ([2]; immunosuppressed, exposed, treated rabbits (FIG. 20)): 100%
Tmax ([3]; 0.25 mg/kg): 1.33 days
group mean lung Cmax ([3]; 0.25 mg/kg): 8.0 µg/g
half-life ([3]; 0.25 mg/kg): 12.2 days
Tmax ([3]; 1.5 mg/kg): 1 days
group mean lung Cmax ([3]; 1.5 mg/kg): 46.6 µg/g
half-life ([3]; 1.5 mg/kg): 10.6 days
median survival time [4, 13]: 10 days
survival rate [4, 13]: 0%
median survival time [4, 14]: 9 days
survival rate [4, 14]: 10%
median survival time [4, 15]: 10.5 days
survival rate [4, 15]: 10%
median survival time [4, 16]: 10 days
survival rate [4, 16]: 10%
Logrank pairwise comparison of Groups 3-6 with untreated Group 2 ([4]; all doses and treatment days): significant (P<0.001) protection
premature demise [5]: 3 animals
clinical signs ([6]; dosages up to 14.80 mg/kg amphotericin B alone): clinical signs indicative of respiratory distress
necropsy findings ([6]; rats, both powders): no notable necropsy findings
changes in body weight, hematology, clinical chemistry, food consumption, respiratory measurement [7]: no significant changes
clinical signs ([7]; all dose groups including vehicle control): salivation
necropsy or histopathology findings attributable to administration ([7]; doses up to 8.2 (3.2) mg/kg weekly): no necropsy or histopathology findings
half-life ([8]; 1.1 mg/kg dose level): 22 days
half-life ([8]; 12.4 mg/kg dose level): 34 days
midrange MIC value [9]: about 2.25 μg/g
effects on body weight, food consumption, ophthalmology, hematology, clinical chemistry, or organ weights [10]: no adverse effects
mortalities during the study ([11]; 198 M and 198 F rats, one death pretrial): 181
animals with pneumonia/pleuritis, collapse or alveolar inflammation ([11]; Groups 3 to 6, Main Study): 17/110
time to maximum plasma concentration after cessation of dosing ([11]; rats, toxicokinetics): ≤ 4 h
